Experiments:
D(2) dopamine receptor = D(2) dopamine receptor (Rattus norvegicus, UniProt P61169)
Description: Inhibition of [3H]spiperone binding to Dopamine receptor D2 at 0.02 nM

D(1A) dopamine receptor = D(1A) dopamine receptor (Rattus norvegicus, UniProt P18901)
[1] = Inhibition of Dopamine-stimulated adenylate cyclase obtained from rat corpus striatum was determined by the conversion of [32P]ATP to [32P]-cAMP

Sequence of D(1A) dopamine receptor (P18901 whole entry): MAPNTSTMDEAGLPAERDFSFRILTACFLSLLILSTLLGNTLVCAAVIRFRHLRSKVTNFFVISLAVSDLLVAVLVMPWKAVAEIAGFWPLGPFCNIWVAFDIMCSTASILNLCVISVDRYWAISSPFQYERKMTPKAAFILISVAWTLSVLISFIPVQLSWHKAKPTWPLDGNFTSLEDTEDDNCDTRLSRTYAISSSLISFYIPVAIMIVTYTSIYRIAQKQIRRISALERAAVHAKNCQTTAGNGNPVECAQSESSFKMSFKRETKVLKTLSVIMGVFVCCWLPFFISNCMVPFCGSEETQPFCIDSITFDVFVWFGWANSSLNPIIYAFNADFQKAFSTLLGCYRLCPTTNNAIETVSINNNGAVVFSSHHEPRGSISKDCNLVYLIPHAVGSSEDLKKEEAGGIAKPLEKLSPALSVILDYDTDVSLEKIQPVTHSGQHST
Sequence of D(2) dopamine receptor (P61169 whole entry): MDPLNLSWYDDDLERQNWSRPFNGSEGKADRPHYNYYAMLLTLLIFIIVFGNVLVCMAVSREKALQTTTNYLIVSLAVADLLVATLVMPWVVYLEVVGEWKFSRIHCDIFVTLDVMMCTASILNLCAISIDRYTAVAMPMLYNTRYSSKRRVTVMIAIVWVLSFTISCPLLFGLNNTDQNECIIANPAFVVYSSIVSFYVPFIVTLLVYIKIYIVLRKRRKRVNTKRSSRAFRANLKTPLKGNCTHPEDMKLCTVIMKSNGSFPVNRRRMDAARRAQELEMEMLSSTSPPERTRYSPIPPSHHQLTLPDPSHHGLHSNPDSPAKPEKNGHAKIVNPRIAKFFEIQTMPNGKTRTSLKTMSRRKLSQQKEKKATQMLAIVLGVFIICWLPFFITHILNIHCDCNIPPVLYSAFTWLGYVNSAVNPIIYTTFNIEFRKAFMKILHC

Ki (D(2) dopamine receptor) [nM]	Ki (D(1A) dopamine receptor) [nM]	Ki [1] [nM]	Structure (SMILES)
26300	743		Oc1cc2c(cc1Cl)CCN[C@@H]2c1ccccc1
676	2.35		Oc1cc2c(cc1Cl)CCNCC2c1ccccc1 (stereo unspecified)
19200	442		CN1CCc2cc(Cl)c(O)cc2[C@H]1c1ccccc1
1900	179		CCCN1CCc2cc(Cl)c(O)cc2[C@@H]1c1ccccc1
1850	6.6		CN1CCc2cc(Cl)c(O)cc2[C@@H]1c1ccccc1
3750	140		Oc1cc2c(cc1Cl)CCN[C@H]2c1ccccc1
915	12.5	8.98	CN1CCc2cc(Cl)c(O)cc2C1c1ccccc1 (racemic)
287	53.2		CN1CCc2cc(Cl)c(O)cc2C1Cc1ccccc1 (racemic)

Structure (SMILES)	Ki (D(2) dopamine receptor) [nM]	Ki (D(1A) dopamine receptor) [nM]	Ki [1] [nM]
CN1Cc2cc(Cl)c(O)cc2C(c2ccccc2)C1 (racemic)	522	174	
Oc1cc2c(cc1Cl)CNCC2c1ccccc1 (racemic)	3620	565	
